Experiment: Water uptake of norfloxacin and its formulations (FIG. 1)
Assay type: physicochemical
Details: depending on manufacturing procedure (wet or dry granulation) and storage temperature and humidity
Description: The water uptake for norfloxacin and its formulations may reach up to 30% and more depending on the manufacturing procedures (wet or dry granulation), and storage conditions of temperature and humidity (see FIG. 1).

## CCn1cc(C(=O)O)c(=O)c2cc(F)c(N3CCNCC3)cc21 [norfloxacin]
  water uptake: ~30%

From patent US20040224014A1, “Non-hygroscopic pharmaceutical compositions containing non-hydrated quinoline carboxylic acids” (The Jordanian pharmaceutical manufacturing Co., priority 2003, published 2004)
